Experimental findings from patent publication US5998476A, “Synthetic polyunsaturated fatty acid analogues” (Peptide Technology Limited, priority 1994, dated 1999) are described below.

Where two headings read alike, the source gives them in different places.

Assay [1] concerns chloroquine-resistant P. falciparum strain K. Put plainly: Inhibition of chloroquine-resistant P. falciparum strain K (direct anti-malarial activity). Format: cell-based. To be noted: All PUFA at 11μm.
Assay [2] has as its system peripheral blood mononuclear cells. Briefly: PHA-induced proliferation of peripheral blood mononuclear cells (thymidine incorporation). Format: cell-based. To be noted: Homo sapiens, PBMC, read-out: % INHIBITION OF PROLIFERATION
How it is done: Mononuclear cells were separated from peripheral blood of normal human donors as described by Ferrante and Thong (1978 . . . ). The mononuclear cells were resuspended in RPMI-1640 containing 20% human AB serum and placed into 96 well microtrays (50 μl per well, cell density 4×10^6 cells/ml). Fatty acid was then added in 50 μl and pre-incubated with the cells for 30 min at 37° C. in 5% CO2. Mitogen (PHA, ConA, PWM. Staph, Aureus) was then added in 100 μl and the cells incubated for 66 hours at 37° C. in 5% CO2 before the addition of tritiated thymnidine (1 μCi/well). After a total of 72 h in culture, the cells were harvested and proliferation (thymidine incorporation) and supernatants assayed for the presence of cytokines.
(Uptake of a labelled nucleoside into DNA is a usual measure of proliferation.)

As to `CCN(CC)CCCC(C)Nc1ccnc2cc(Cl)ccc12` (centres unmarked) [Chloroquine, reference compound], the “% INHIBITION of P. falciparum” value in assay [1] came to 20.1%.

`CCCCC/C=C\C/C=C\C/C=C\C/C=C\CCCC(=O)N[C@@H](CC(=O)O)C(=O)O` [arachidonic acid-aspartic acid-OH, Arachidonic-aspartic acid-OH]: the inhibition at 20 µM in assay [2] was 39.7%.

As to `CCCCC/C=C\C/C=C\C/C=C\C/C=C\CCCC(=O)NCC(=O)O` [arachidonic acid-glycine-OH, Arachidonic Acid-Glycine-OH], the inhibition at 20 µM in assay [2] came out at 8%. The “% INHIBITION of P. falciparum” value in assay [1] is 84.2%.

On to `CC/C=C\C/C=C\C/C=C\C/C=C\C/C=C\C/C=C\CCC(=O)N[C@@H](CC(=O)O)C(=O)O` [docosahexaenoic acid-aspartic acid-OH, Docosahexaenoic Acid-Aspartic Acid-OH], for which the inhibition at 20 µM in assay [2] (All PUFA at 20μM, PHA-induced) amounted to 21.1%.

For `CC/C=C\C/C=C\C/C=C\C/C=C\C/C=C\C/C=C\CCC(=O)NCC(=O)O` [docosahexaenoic acid-glycine-OH, Docosahexaenoic acid-glycine-OH], the inhibition at 20 µM in assay [2] (All PUFA at 20μM, PHA-induced) was 16.6%. For the same molecule, in assay [1], the “% INHIBITION of P. falciparum” value is 84.9%.

For `CC/C=C\C/C=C\C/C=C\C/C=C\C/C=C\CCCC(=O)N[C@@H](CC(=O)O)C(=O)O` [eicosapentaenoic acid-aspartic acid-OH, Eicosapentaenoic acid-aspartic acid-OH], the inhibition at 20 µM in assay [2] (All PUFA at 20μM, PHA-induced) is 20.7%.

`CC/C=C\C/C=C\C/C=C\C/C=C\C/C=C\CCCC(=O)NCC(=O)O` [eicosapentaenoic acid-glycine-OH, Eicosapentaenoic acid-glycine-OH]: in assay [2] (All PUFA at 20μM, PHA-induced), the inhibition at 20 µM was found to be 5.4%.

With `CC/C=C\C/C=C\C/C=C\CCCCCCCC(=O)N[C@@H](CC(=O)O)C(=O)O` [α-linolenic acid-aspartic acid-OH, Linolenic Acid-Aspartic Acid-OH], the inhibition at 20 µM in assay [2] (All PUFA at 20μM, PHA-induced) came out at 15.4%.

As for `CC/C=C\C/C=C\C/C=C\CCCCCCCC(=O)NCC(=O)O` [α-linolenic acid-glycine-OH, Linolenic Acid-Glycine-OH], the inhibition at 20 µM in assay [2] (All PUFA at 20μM, PHA-induced) was 29%. Moreover, the “% INHIBITION of P. falciparum” value in assay [1] is 81.5%.

For `CCCCC/C=C\C/C=C\C/C=C\CCCCC(=O)N[C@@H](CC(=O)O)C(=O)O` [γ-linolenic acid-aspartic acid-OH, Gamma Linolenic-Aspartic Acid-OH], the inhibition at 20 µM in assay [2] (All PUFA at 20μM, PHA-induced) worked out at 7.3%.

As to `CCCCC/C=C\C/C=C\C/C=C\CCCCC(=O)NCC(=O)O` [γ-linolenic acid-glycine-OH, Gamma Linolenic Acid-Glycine-OH], the inhibition at 20 µM in assay [2] (All PUFA at 20μM, PHA-induced) was found to be 15.6%.
